Test results: patent US7566712B2, “Biaryl piperazinyl-pyridine analogues” (Neurogen Corporation, priority 2003, dated 2009)

Each compound was assayed against T1, human capsaicin receptor (Homo sapiens, UniProt Q8NER1) (assay: Calcium mobilization assay, determination of antagonist activity (Example 6)). Settings: Table II; IC50 determined as described in Example 6.
T1 construct: pBK-CMV expression construct encoding the full length human capsaicin receptor; expressed in transfected cells
Type: cell-based
Summary of the method: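 Antagonism measured as inhibition of capsaicin-evoked (final concentration = EC50, from an 8-point 1 nM–3 μM curve) Fluo-3 calcium signal in stable hVR1-HEK293 cells. Test compounds at 1–5 μM final, 0.5–6 h dark preincubation at room temperature. IC50 = concentration giving 50% reduction versus agonist-only response.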

T1 sequence (Q8NER1 whole entry): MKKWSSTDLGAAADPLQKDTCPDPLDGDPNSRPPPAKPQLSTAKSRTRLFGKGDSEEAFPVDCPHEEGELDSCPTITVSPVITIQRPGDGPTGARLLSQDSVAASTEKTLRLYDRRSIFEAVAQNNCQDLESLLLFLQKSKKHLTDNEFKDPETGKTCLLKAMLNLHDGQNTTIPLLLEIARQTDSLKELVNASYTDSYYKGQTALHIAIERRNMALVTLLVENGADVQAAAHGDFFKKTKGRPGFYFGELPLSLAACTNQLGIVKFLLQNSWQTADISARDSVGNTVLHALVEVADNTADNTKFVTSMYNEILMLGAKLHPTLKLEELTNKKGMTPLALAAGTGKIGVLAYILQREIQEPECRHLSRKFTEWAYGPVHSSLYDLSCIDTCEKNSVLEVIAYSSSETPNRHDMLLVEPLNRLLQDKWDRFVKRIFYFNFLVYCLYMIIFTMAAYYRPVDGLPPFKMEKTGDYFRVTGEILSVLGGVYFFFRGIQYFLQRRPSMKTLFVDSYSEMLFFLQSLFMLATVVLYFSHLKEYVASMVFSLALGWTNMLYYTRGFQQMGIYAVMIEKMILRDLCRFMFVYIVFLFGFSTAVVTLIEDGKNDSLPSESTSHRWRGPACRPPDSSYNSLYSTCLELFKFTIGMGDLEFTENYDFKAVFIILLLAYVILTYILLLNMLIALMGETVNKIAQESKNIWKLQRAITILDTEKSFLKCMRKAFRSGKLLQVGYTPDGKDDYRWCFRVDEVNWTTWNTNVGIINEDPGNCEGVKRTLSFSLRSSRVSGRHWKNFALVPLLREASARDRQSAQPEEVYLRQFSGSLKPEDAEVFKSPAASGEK

SMILES	IC50 [µM]
FC(F)(F)c1ccc(-c2nc(N3CCOCC3)nc(N3CCN(c4ncccc4C(F)(F)F)CC3)n2)cc1 [Example 437, 2-morpholin-4-yl-4-[4-(trifluoromethyl)phenyl]-6-{4-[3-(trifluoromethyl)pyridin-2-yl]piperazin-1-yl}-1,3,5-triazine]	≤ 1
C[C@@H]1CN(c2ncccc2C#N)CCN1c1cc(-c2ccc3ccccc3c2)nc(N2CCOCC2)n1 [Example 489, 2-{(3R)-3-methyl-4-[2-morpholin-4-yl-6-(2-naphthyl)pyrimidin-4-yl]piperazin-1-yl}nicotinonitrile]	≤ 1
C[C@@H]1CN(c2ncccc2C#N)CCN1c1cc(-c2ccc(F)cc2)nc(N2CCOCC2)n1 [Example 486, 2-{(3R)-4-[6-(4-fluorophenyl)-2-morpholin-4-ylpyrimidin-4-yl]-3-methylpiperazin-1-yl}nicotinonitrile]	≤ 1
C[C@@H]1CN(c2ncccc2C(F)(F)F)CCN1c1cc(-c2ccccc2)nc(N2CCOCC2)n1 [Example 478, 4-(4-{(2R)-2-methyl-4-[3-(trifluoromethyl)pyridin-2-yl]piperazin-1-yl}-6-phenylpyrimidin-2-yl)morpholine]	≤ 1
CSc1cccc(-c2cc(N3CCN(c4ncccc4C(F)(F)F)C[C@H]3C)nc(N3CCOCC3)n2)c1 [Example 538, 4-(4-[3-(methylthio)phenyl]-6-{(2R)-2-methyl-4-[3-(trifluoromethyl)pyridin-2-yl]piperazin-1-yl}pyrimidin-2-yl)morpholine]	≤ 1
C[C@@H]1CN(c2ncccc2C(F)(F)F)CCN1c1cc(-c2ccc(C(C)(C)C)cc2)nc(N2CCOCC2)n1 [Example 519, 4-(4-(4-tert-butylphenyl)-6-{(2R)-2-methyl-4-[3-(trifluoromethyl)pyridin-2-yl]piperazin-1-yl}pyrimidin-2-yl)morpholine]	≤ 1
Fc1ccc(-c2cc(N3CCN(c4ncccc4C(F)(F)F)CC3)nc(OC3CCOCC3)n2)cc1Cl [Example 557, 4-(3-chloro-4-fluorophenyl)-2-(tetrahydro-2H-pyran-4-yloxy)-6-{4-[3-(trifluoromethyl)pyridin-2-yl]piperazin-1-yl}pyrimidane]	≤ 1

Same assay, conditions: Table II; IC50 determined as described in Example 6 (antagonist activity, calcium mobilization)

SMILES	IC50 [µM]
CC1CCCN1c1nc(-c2ccc(F)cc2)cc(N2CCN(c3nc(C#N)ccc3C#N)C[C@H]2C)n1 (stereo in doubt) [Example 1014, 6-{4-[6-(4-fluorophenyl)-2-(2-methylpyrrolidin-1-yl)pyrimidin-4-yl]-3-methylpiperazin-1-yl}pyridine-2,5-dicarbonitrile]	≤ 1
C[C@@H]1CN(c2ncccc2F)CCN1c1cc(-c2ccc(F)c(Cl)c2)nc(Cl)n1 [Example 983, 2-chloro-4-(3-chloro-4-fluorophenyl)-6-[(2R)-4-(3-fluoropyridin-2-yl)-2-methylpiperazin-1-yl]pyrimidine]	≤ 1
C[C@@H]1CN(c2ccccc2F)CCN1c1cc(-c2ccc(F)c(Cl)c2)nc(N2CCC[C@@H]2C)n1 [Example 989, 4-(3-chloro-4-fluorophenyl)-6-[(2R)-4-(2-fluorophenyl)-2-methylpiperazin-1-yl]-2-[(2S)-2-methylpyrrolidin-1-yl]pyrimidlne]	≤ 1

Same assay, conditions: Table II; determined as described in Example 6 (antagonist activity); "*" = 1 micromolar or less

SMILES	IC50 [µM]
O=C(O)C1CCCCN1c1nc(-c2ccc(F)c(Cl)c2)cc(N2CCN(c3ncccc3C(F)(F)F)CC2)n1 (centres unmarked) [Example 832, 1-(4-(3-chloro-4-fluorophenyl)-6-{4-[3-(trifluoromethyl)pyridin-2-yl]piperazin-1-yl}pyrimidin-2-yl)piperidine-2-carboxylic acid]	≤ 1
O=C(O)CCc1cccc(-c2cc(N3CCN(c4ncccc4C(F)(F)F)CC3)nc(N3CCOCC3)n2)c1 [Example 848, 3-(3-(2-morpholin-4-yl-6-{4-[3-(trifluoromethyl)pyridin-2-yl]piperazin-1-yl}pyrimidin-4-yl)phenyl]propanoic acid]	≤ 1
C[C@@H]1CCCN1c1cc(-c2ccc(F)c(Cl)c2)nc(N2CCN(c3ncccc3Cl)C[C@H]2C)n1 [Example 941, 4-(3-chloro-4-fluorophenyl)-2-[(2R)-4-(3-chloropyridin-2-yl)-2-methylpiperazin-1-yl]-6-[(2R)-2-methylpyrrolidin-1-yl]pyrimidine]	≤ 1

Same assay, conditions: determined as described in Example 6 (calcium mobilization, antagonist activity); Table II

SMILES	IC50 [µM]
CC1CCN1c1nc(-c2ccc(F)c(Cl)c2)cc(N2CCN(c3ncccc3C(F)(F)F)CC2)n1 (centres unmarked) [Example 746, 4-(3-ohloro-4-fluorophenyl)-2-(2-methylazetidin-1-yl)-6-{4-[3-(trifluoromethyl)pyridin-2-yl]piperazin-1-yl}pyrimidine]	≤ 1
CC(=O)c1nc(-c2ccc(F)c(Cl)c2)cc(N2CCN(c3ncccc3C(F)(F)F)CC2)n1 [Example 671, 1-(4-(3-chloro-4-fluorophenyl)-6-{4-[3-(trifluoromethyl)pyridin-2-yl]piperazin-1-yl}pyrimidin-2-yl)ethanone]	≤ 1
CC(=N)N1CCN(c2nc(-c3ccc(F)c(C)c3)cc(N3CCN(c4ncccc4C(F)(F)F)CC3)n2)CC1 [Example 657, 1-[4-(4-(4-fluoro-3-methylphenyl)-6-{4-[3-(trifluoromethyl)pyridin-2-yl]piperazin-1-yl}pyrimidin-2-yl)piperazin-1-yl]ethanimine]	≤ 1
CC(C)N(CCO)c1nc(-c2ccc(F)c(Cl)c2)cc(N2CCN(c3ncccc3C(F)(F)F)CC2)n1 [Example 644, 2-[(4-(3-chloro-4-fluorophenyl)-6-{4-[3-(trifluoromethyl)pyridin-2-yl]piperazin-1-yl}pyrimidin-2-yl)(isopropyl)amino]ethanol]	≤ 1
CC1CCCN1c1nc(-c2ccc(F)cc2)cc(N2CCN(c3ncccc3C(F)(F)F)CC2)n1 (centres unmarked) [Example 705, 4-(4-fluorophenyl)-2-(2-methylpyrrolidin-1-yl)-6-{4-[3-(trifluoromethyl)pyridin-2-yl]piperazin-1-yl}pyrimidine]	≤ 1
Cc1cc(-c2cc(N3CCN(c4ncccc4C(F)(F)F)CC3)nc(N3CCCCC3C)n2)ccc1F (centres unmarked) [Example 642, 4-(4-fluoro-3-methylphenyl)-2-(2-methylpiperidin-1-yl)-6-{4-[3-(trifluoromethyl)pyridin-2-yl]piperazin-1-yl}pyrimidine]	≤ 1
OCCN1CCN(c2nc(-c3ccc(F)c(Cl)c3)cc(N3CCN(c4ncccc4C(F)(F)F)CC3)n2)CC1 [Example 750, 2-[4-(4-(3-chloro-4-fluorophenyl)-6-{4-[3-(trifluoromethyl)pyridin-2-yl]piperazin-1-yl}pyrimidin-2-yl)piperazin-1-yl]ethanol]	≤ 1
C[C@@H]1CN(c2ncccc2C(F)(F)F)CCN1c1cc(-c2ccc(F)c(Cl)c2)nc(N2CCCC2)n1 [Example 763, 4-(3-chloro-4-fluorophenyl)-6-{(2R)-2-methyl-4-[3-(trifluoromethyl)pyridin-2-yl]piperazin-1-yl}-2-pyrrolidin-1-ylpyrimidine]	≤ 1
CC(C)CN(C)c1nc(-c2ccc(F)c(Cl)c2)cc(N2CCN(c3ncccc3C(F)(F)F)CC2)n1 [Example 615, 4-(3-chloro-4-fluorophenyl)-N-isobuty-methyl-6-{4-[3-(trifluoromethyl)pyridin-2-yl]piperazin-1-yl}pyrimidin-2-amine]	≤ 1
CCC(CC)Oc1nc(-c2ccc(F)c(Cl)c2)cc(N2CCN(c3ncccc3C(F)(F)F)CC2)n1 [Example 658, 4-(3-chloro-4-fluorophenyl)-2-(1-ethylpropoxy)-6-{4-[3-(trifluoromethyl)pyridin-2-yl]piperazin-1-yl}pyrimidine]	≤ 1
